In patent US8129402B2 (priority 2002, dated 2012):

Target: PrP^sc in ScN2a-22L cells (Mus musculus, UniProt P04925)
Format: cell-based
Settings: ScN2a-22L cells, NIH Image J quantification

Sequence of PrP^sc in ScN2a-22L cells (P04925 23-230 limits assumed): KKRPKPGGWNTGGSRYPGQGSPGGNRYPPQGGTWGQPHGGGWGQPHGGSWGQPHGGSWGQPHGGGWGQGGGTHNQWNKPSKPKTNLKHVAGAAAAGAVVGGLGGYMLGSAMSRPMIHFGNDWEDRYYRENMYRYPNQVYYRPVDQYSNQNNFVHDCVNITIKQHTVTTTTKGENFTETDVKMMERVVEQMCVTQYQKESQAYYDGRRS

CN(C)CCCN1c2ccccc2Sc2ccc(Cl)cc21 [chlorpromazine]
inhibition of the accumulation of PrPsc (resistant to proteinase K): 96%
